Experimental data reported in patent US8372409B2, “Dendritic cell binding proteins and uses thereof” (University of Florida Research Foundation, Inc., priority 2003, dated 2013).

Experiments:
[1] = test system: monocyte-derived DC from rhesus macaque; test: FACS binding of biotinylated DC-peptides to rhesus macaque DC; conditions: FACS (FIG. 1E)
Method: (§1) Peripheral blood mononuclear cells (PBMCs) were isolated from blood of healthy or HCV^+ individuals by Ficoll gradient centrifugation. HCV RNA was detected in the blood of HCV-infected patients by RT-PCR. PBMCs (10^7/well) were seeded in 6-well plates for 2 hrs at 37° C. Subsequently, non-adherent cells were removed by several washes using PBS plus 2% fetal calf serum (FCS) and frozen for autologous MLR experiments. Adherent monocytes were cultured with GM-CSF (100 ng/ml) and IL-4 (10 ng/ml) in complete RPMI for 6 days (6). CD1a^+DR^bright DC were phenotyped by FACS before use. Rhesus macaque or chimpanzees DC were prepared in a parallel fashion by using Hgm-CSF (100 ng/ml) and Hil-4 (50 ng/ml) for six days (15). Mouse DC were prepared from bone marrow of BALB/c mice as described (16). On day six, CD11c^+I-A^+ DC were harvested, phenotyped and used for DC-peptide staining.
(§2) MDC (5×10^5) were incubated with biotinylated peptides (10 μg/ml each) for 1 hr at 4° C. Subsequently, cells were washed, incubated with SA-PE (1:100) for 1 hr, fixed with 0.1% paraformaldehyde and analyzed on a FACSCalibur™ using standard CellQuest software (Becton Dickinson). T cells were analyzed as we described (19). At least 10^4 gated events/condition were acquired for all analyses.
(§3) To test peptide binding specificity, biotinylated peptides #3, #12 and #18 were incubated with CD1a^+DR^bright CD11^bright monocyte-derived human DC, and analyzed by FACS.

[2] = test system: CD11c+I-A+ DC derived from mouse bone marrow; test: FACS binding of biotinylated DC-peptides to mouse bone marrow derived DC; conditions: FACS (FIG. 1F)
Method: as §1, §2, §3

[3] = test system: monocyte-derived DC from chimpanzee; test: FACS binding of biotinylated DC-peptides to chimpanzee DC
Method: as §1, §2, §3

[4] = test system: CD1a+DRbright CD11bright monocyte-derived human DC; test: FACS binding of biotinylated DC-peptides to human monocyte-derived DC; conditions: for binding to monocyte-derived human DC: biotinylated peptides, FACS and confocal microscopy (FIG. 1A, 1B)
Method: as §1, §2, §3
The cognate ligands for these peptides are unknown. Thus, we next tested whether these peptides bound distinct epitopes. DC presaturated with non-biotinylated peptide no longer bound the corresponding biotinylated peptide (FIG. 2A). […] Thus, the three DC-binding peptides bound distinct, saturable DC surface epitopes.
Biotinylated peptide #3 bound immature DC within 1 hr at 4° C. (FIG. 2D). Staining was decreased over the following 20 hrs at 37° C. (FIG. 2D) consistent with antigen uptake by Dcs (15, 22). […] Peptides bound immature (upper panel) and mature MDC (lower panel) comparably (FIG. 2E), although LPS-mediated maturation appeared to increase peptide binding slightly by inducing a new, minor population of high peptide-binding DC.

Sequence | binding to monocyte-derived DC from rhesus macaque [1] | binding to CD11c+I-A+ DC derived from mouse bone marrow [2] | binding to monocyte-derived DC from chimpanzee [3] | staining of DC over the following 20 hrs ([4]; 37° C., consistent with antigen uptake (FIG. 2D)) | DC viability during peptide incubation ([4]; 20 hrs at 37° C.) | time to binding of immature DC ([4]; biotinylated peptide, 4° C. (FIG. 2D)) | binding to monocyte-derived human DC [4] | binding of 12-mer peptide to DC ([4]; selected from the same panning as negative control)
FYPSYHSTPQRP [peptide #3] | specifically bound | bound | specifically bound | decreased | remained viable | ≤ 1 h | bound to DC | 
EPIHPETTFTNN [control peptide, reference compound] |  |  |  |  |  |  |  | did not bind to DC
SLSLLTMPGNAS (PEPTIDE peptide specific to myeloid dendritic cells) [compound 18] | specifically bound | did not | specifically bound |  |  |  | bound to DC | 
AYYKTASLAPAE (PEPTIDE peptide specific to myeloid dendritic cells) [compound 12] | specifically bound | did not | specifically bound |  |  |  | bound to DC | 
